These results are taken from paper PMC12281424, “A Rac-specific competitive inhibitor of guanine nucleotide binding reduces metastasis in triple-negative breast cancer” (Cell Reports Medicine, 2025).

In assay [1] the test system is RAC1-dependent membrane ruffle formation in NIH 3T3 cells. Kind of assay: EGF-induced membrane ruffle formation. It counts as cell-based. How it is done: Figure 2 Identification of a new RAC1 inhibitor (A) Effect of A41 and NSC23766 on ruffle formation (white arrows) induced by EGF (10 ng/mL) in NIH 3T3 cells in serum-free culture medium (CTL). Inhibitors were added at indicated concentration 1 h prior to EGF stimulation. To assess cytoskeleton organization, cells were incubated with Alexa Fluor 488 phalloidin to visualize F-actin. Results shown are representative of 3 independent experiments. Corresponding concentration-response curves have been established by counting the percentages of cells with ruffles (scale bars: 10 μm). (B) Immunoblot analysis and associated quantification of RAC-GTP level and total RAC expression in NIH 3T3 cells stimulated by EGF (10 ng/mL, 5 min) and pre-incubated or not (−) with NSC23766, A41, or A415 at 10^−5 M for 1 h (∗∗∗p < 0.001 vs. controls without EGF stimulation, ^###p < 0.001 vs. controls with EGF stimulation) (N > 3). […] (D) Representative in vitro nucleotide exchange catalyzed by the DH-PH of TIAM (10 nM) measured by the binding of fluorescent mant-GTP (1 μM) to RAC1 (0.5 μM, preloaded with GDP) in the presence of indicated concentrations of A41 (out of N = 6). […] (E) Kobs and Kmax were determined in each condition (N = 6). […]
After indicated treatments, cells were fixed with 4% paraformaldehyde and permeabilized in PBS 0.5% Triton X-100. […] Cancer cells were detected with firefly luciferase antibody (ab21176, Abcam) (dilution 1/500) overnight at room temperature, followed by secondary Alexa 488-labeled anti-rabbit antibody (dilution 1/1000). […] After staining, cells were mounted in Prolong gold antifade reagent with DAPI and images were captured by a fluorescence microscope. […]
Supp. […] For each molecule, druglikeness has been assessed according to Lipinski’s rules: molecular weight (MW)<500; high lipophilicity (LogP<5); less than 5 hydrogen bond donors (HBD); less than 10 hydrogen bond acceptors (HBA). The log P was calculated by using OSIRIS – Data Warrior software. […] IC50 was determined experimentally from the inhibition

Another assay deals with T1, RAC1 (Mus musculus, UniProt P63001).
T1 construct: endogenous in cells; host or cells: NIH/3T3 fibroblasts (ATCC CRL-1658), EGF-stimulated
Kind of assay: RAC-GTP pull-down assay, EGF-stimulated NIH/3T3 fibroblasts. It counts as cell-based. The note with it: 10^-5 M, 1 h, EGF 10 ng/mL 5 min. How it is done:
Figure 2 Identification of a new RAC1 inhibitor (A) Effect of A41 and NSC23766 on ruffle formation (white arrows) induced by EGF (10 ng/mL) in NIH 3T3 cells in serum-free culture medium (CTL). Inhibitors were added at indicated concentration 1 h prior to EGF stimulation. To assess cytoskeleton organization, cells were incubated with Alexa Fluor 488 phalloidin to visualize F-actin. Results shown are representative of 3 independent experiments. Corresponding concentration-response curves have been established by counting the percentages of cells with ruffles (scale bars: 10 μm). (B) Immunoblot analysis and associated quantification of RAC-GTP level and total RAC expression in NIH 3T3 cells stimulated by EGF (10 ng/mL, 5 min) and pre-incubated or not (−) with NSC23766, A41, or A415 at 10^−5 M for 1 h (∗∗∗p < 0.001 vs. controls without EGF stimulation, ^###p < 0.001 vs. controls with EGF stimulation) (N > 3). (C) Representative surface plasmon resonance (SPR) sensograms of binding of immobilized RAC1 with increasing concentrations of A41 with or without EDTA (20 mM) (N > 3). (D) Representative in vitro nucleotide exchange catalyzed by the DH-PH of TIAM (10 nM) measured by the binding of fluorescent mant-GTP (1 μM) to RAC1 (0.5 μM, preloaded with GDP) in the presence of indicated concentrations of A41 (out of N = 6). Dotted lines correspond to the experimental curves, and continuous lines represent the fit of experimental points. (E) Kobs and Kmax were determined in each condition (N = 6). (F) Predicted binding modes of A4 to the NSC23766-binding site (left) or the GDP-binding pocket of RAC1 (right). In the NSC23766-binding site of RAC1, the compound A4 (carbon atoms in blue) makes 2 hydrogen bonds (green dotted line) with Ser71 (S71) and 10 hydrophobic interactions (pink dotted line) with Ala3 (A3), Lys5 (K5), Val36 (V36), Trp56 (W56), Tyr64 (Y64), and Leu67 (L67) leading to a docking score of −6.03 kcal/mol. The GDP molecule is shown with fine line. The P loop is shown in yellow, the switch 1 in orange, and the switch 2 in green. […]
Pull-down assay using GST-PBD fusion proteins were performed on NIH-3T3 lysates to assess RAC1 activity as previously described.[63] The precipitated active RAC was subjected to SDS-PAGE and detected by immunoblot with anti-RAC1 antibody (BD biosciences) (dilution 1/1000). […]
screening molecules (10^-5 M) on NIH/3T3 cell adhesion (xCELLingence Real-time cellanalysis, Agilent), migration (CYTOO Mobility plates) and proliferation (xCELLingence Real-time cell analysis, Agilent) .The level of RAC activation is determinedby the detection of RAC-GTP (pull-down assay) in NIH/3T3 cell treated with EGF (10 ng/mL) and the differentmolecules and normalize to the level of RAC activity measuredin the presenceof the reference RAC inhibitor EHT1864.

Take `COc1ccc(OC)c(NC(=O)c2ccc(NC(=O)CCSc3ccc(C)cc3)cc2)c1` [Compound A415]: the “inhibitory effect on RAC1” value in assay [1] is reported as “loss of the inhibitory effect on RAC1”. For the same molecule, the “RAC1 activation (active GTP-bound RAC1)” value at RAC1 is given as “no significant effect”.

For the molecule `CCC(=O)Nc1ccc(S(=O)(=O)Nc2cc(OC)ccc2OC)cc1` [Compound A420], the “inhibitory effect on RAC1” value in assay [1] is given as “loss of the inhibitory effect on RAC1”.
